Reference: patent US7199114B2, “Triterpene quaternary salts as biologically active surfactants” (The Regents of the University of Minnesota, priority 2002, dated 2007)
≈ marks a conversion by molar mass, not a printed value.

Experiments:
dollar spot fungus = assay: Turf plot trial at Clemson University (Example 85), area affected by dollar spot; type: in vivo, Agrostis stolonifera; settings: 50 grams active ingredient per 1000 square feet
Description: (§1) Plots of creeping bentgrass, cv. “Pennlinks,” were treated with water based sprays of the test compounds. Sprays were delivered by CO2-charged sprayer to deliver the equivalent of 2 gallons of spray per 1000 sq. ft of plot area. Plots were 15 sq. ft. each, and treatments were mixed to apply material to 75 sq. ft (5 replicates), although only 4 replicates were treated. […] Daconil Ultrex® was applied at 3.2 oz./1000 sq. ft. for 14 days. The experiment used a randomized complete block design, with 4 replicates per treatment. Disease pressure was high. Pennlinks […] is moderately to highly susceptible to both dollar spot and brown patch. For brown patch, caused by Rhozoctonia sofani. a visual estimate of the percent of the plot area affected was recorded. Turf quality was estimated on a 1 to 9 scale, with 1 being worst and 9 being perfect. A rating of 6 is considered acceptable.
(§2) Plots of creeping bentgrass, cv. Pennlinks, were treated with water-based sprays as in Example 84 at Clemson University. Treatment application dates were May 7. May 14, May 28, and June 11. Plots were rated visually, estimating the percent of the area affected by dollar spot fungus […]. Turf quality was rated on a 1 to 9 scale, with 9 being perfect turf, as in Example 84. Disease pressure was moderately high to high when the trial was initiated, with existing dollar spot present.

[1] = Turf plot trial at Clemson University (Example 85), turf quality; type: in vivo, creeping bentgrass, cv. Pennlinks; settings: 1 to 9 scale, 50 grams active ingredient per 1000 square feet
Description: as §1, §2

[2] = tested on: Staphylococcus aureus Methicillin-resistant; assay: Anti-bacterial activity, broth culture MIC; type: cell-based; settings: Staphylococcus aureus Methicillin-resistant, broth culture, triplicate; for MIC: read-out: Approximate Minimum Inhibitory Concentration, MIC
Description: (§3) Several uncharged or negatively charged triterpenes, and several positively charged triterpenes of the invention were tested for anti-bacterial activity against antibiotic-susceptible and antibiotic resistant strains of four types of bacteria of concern in clinics and hospitals. The triterpenes weres tested in broth culture in triplicate for ability to inhibit bacterial growth. The compounds tested are those listed below.
(§4) The lowest concentration which inhibits bacterial growth is referred to as the minimum inhibitory concentration (MIC), the standard measurement of anti-microbial activity.

[3] = tested on: Staphylococcus aureus Methicillin-sensitive; assay: Anti-bacterial activity, broth culture MIC; type: cell-based; settings: Staphylococcus aureus Methicillin-sensitive, broth culture, triplicate; for MIC: read-out: Approximate Minimum Inhibitory Concentration, MIC
Description: as §3, §4

[4] = tested on: Enterococcus faecium Vancomycin-sensitive (first listed); assay: Anti-bacterial activity, broth culture MIC; type: cell-based; settings: Enterococcus faecium Vancomycin-sensitive (r11/r12), broth culture, triplicate; for MIC: read-out: Approximate Minimum Inhibitory Concentration, MIC
Description: as §3, §4

[5] = tested on: Enterococcus faecium Vancomycin-sensitive (second listed); assay: Anti-bacterial activity, broth culture MIC; type: cell-based; settings: Enterococcus faecium Vancomycin-sensitive (r13/r14), broth culture, triplicate; for MIC: read-out: Approximate Minimum Inhibitory Concentration, MIC
Description: as §3, §4

[6] = tested on: dollar spot fungus (Agrostis stolonifera); assay: Turf plot trial at Clemson University (Example 85), area affected by dollar spot; type: in vivo; settings: for % of area infected: 50 grams active ingredient per 1000 square feet
Description: as §1, §2

In the case of `C=C(C)[C@@H]1CC[C@]2(COC(=O)C[N+](C)(C)CCCCCCCCCCCCCC)CC[C@]3(C)C(CCC4[C@@]5(C)CC[C@H](OC(=O)C[N+](C)(C)CCCCCCCCCCCCCC)C(C)(C)C5CC[C@]43C)C12.[Cl-].[Cl-]` (stereo partly shown) [Compound 55, Lup-20(29)-ene-3,28-bis(tetradecyldimethylamoniumacetate) dichloride], the “% of area infected” value (dollar spot fungus; Table 5 c2, Jun. 3, 2002) is reported as 28.8 a %, the “% of area infected” value (dollar spot fungus; Table 5 c4, Jun. 3, 2002) is reported as 24.3 a % and the “% of area infected” value (dollar spot fungus; Table 6, May 8, 2002) is reported as 33.5 a %. The “% of area infected” value (dollar spot fungus; Table 6, May 13, 2002) was 30.0 a %, the “% of area infected” value (dollar spot fungus; Table 6, May 20, 2002) was 32.8 b % and the “% of area infected” value (dollar spot fungus; Table 6, May 27, 2002) was 29.3 a-d %. For the same compound, the Turf quality ([1]; Table 5, Jun. 3, 2002) was 5.10 ab, the Turf quality ([1]; Table 5, Jun. 17, 2002) was 5.2 ab and the Turf quality ([1]; Table 5, May 27, 2002) was 3.38 ab. It also gave a Turf quality ([1]; Table 6, May 8, 2002) of 3.05 a, a Turf quality ([1]; Table 6, May 13, 2002) of 3.00 a and a Turf quality ([1]; Table 6, May 20, 2002) of 2.97 ab.

With `C=C(C)[C@@H]1CC[C@]2(COC(=O)/C=C\C(=O)O)CC[C@]3(C)[C@H](CC[C@@H]4[C@@]5(C)CC[C@H](OC(=O)/C=C\C(=O)O)C(C)(C)[C@@H]5CC[C@]43C)[C@@H]12` [Compound 93, betulin-3,28-dimaleate, reference compound] the “Approximate Minimum Inhibitory Concentration, MIC” value [2] was 200 µg/mL and the “Approximate Minimum Inhibitory Concentration, MIC” value [3] was 200 µg/mL.

With `C=C(C)[C@@H]1CC[C@]2(COC(=O)/C=C\C(=O)O)CC[C@]3(C)[C@H](CC[C@@H]4[C@@]5(C)CC[C@H](O)C(C)(C)[C@@H]5CC[C@]43C)[C@@H]12` [Compound 94, betulin-28-maleate, reference compound] the “Approximate Minimum Inhibitory Concentration, MIC” value [4] was 200 µg/mL, the “Approximate Minimum Inhibitory Concentration, MIC” value [5] was 200 µg/mL and the “Approximate Minimum Inhibitory Concentration, MIC” value [3] was 50 µg/mL.

With `C=C(C)C1CCC2(COC(=O)CCC(=O)O)CC[C@@]3(C)C(CCC4[C@@]5(C)CCC(OC(=O)CCC(=O)O)C(C)(C)C5CC[C@]43C)C12` (stereo partly shown) [Compound 91, betulin-3,28-disuccinate, reference compound] the “Approximate Minimum Inhibitory Concentration, MIC” value [3] was 200 µg/mL.

In the case of `C=C(C)[C@@H]1CC[C@]2(CO)CC[C@]3(C)C(CCC4[C@@]5(C)CC[C@H](OC(=O)C[N+](C)(C)CCCCCCCCCCCCCC)C(C)(C)C5CC[C@]43C)C12.[Cl-]` (stereo partly shown) [Compound 56], the “% of area infected” value ([6]; Table 5 c2, Jun. 3, 2002) is reported as 22.0 a %, the “% of area infected” value ([6]; Table 5 c4, Jun. 3, 2002) is reported as 19.3 ab % and the “% of area infected” value ([6]; Table 6, May 8, 2002) is reported as 31.0 a %. The “% of area infected” value ([6]; Table 6, May 13, 2002) was 26.5 a %, the “% of area infected” value ([6]; Table 6, May 20, 2002) was 32.0 bc % and the “% of area infected” value ([6]; Table 6, May 27, 2002) was 21.8 cd %. It also gave a Turf quality ([1]; Table 5, Jun. 3, 2002) of 5.30 ab, a Turf quality ([1]; Table 5, Jun. 17, 2002) of 5.38 ab and a Turf quality ([1]; Table 5, May 27, 2002) of 4.47 ab. For the same compound, the Turf quality ([1]; Table 6, May 8, 2002) was 3.13 a, the Turf quality ([1]; Table 6, May 13, 2002) was 3.00 a and the Turf quality ([1]; Table 6, May 20, 2002) was 3.03 ab.

For `C=C(C)C1CCC2(COC(=O)CCC(=O)O)CC[C@@]3(C)C(CCC4[C@@]5(C)CCC(O)C(C)(C)C5CC[C@]43C)C12` (stereo partly shown) [Compound 92, betulin-28-succinate, reference compound], the “Approximate Minimum Inhibitory Concentration, MIC” value [3] was 50 µg/mL.

With `C=C(C)[C@@H]1CC[C@]2(CO)CC[C@]3(C)C(CCC4[C@@]5(C)CC[C@H](OC(=O)C[N+](C)(CCCCCCCCCC)CCCCCCCCCC)C(C)(C)C5CC[C@]43C)C12.[Cl-]` (stereo partly shown) [Compound 67, Betulin-3-(didecylmethylammoniumacetoxy) chloride] the “% of area infected” value ([6]; Table 5 c2, Jun. 3, 2002) was 13.0 b %, the “% of area infected” value ([6]; Table 5 c4, Jun. 3, 2002) was 9.0 b % and the “% of area infected” value ([6]; Table 6, May 8, 2002) was 28.3 a %. For the same compound, the “% of area infected” value ([6]; Table 6, May 13, 2002) was 26.0 a %, the “% of area infected” value ([6]; Table 6, May 20, 2002) was 24.3 c % and the “% of area infected” value ([6]; Table 6, May 27, 2002) was 21.0 d %. For the same compound, the “extent of dollar spot infection” value ([6]; by the end of the treatment trial, compared to the no treatment control (text summary of Tables 5 and 6)) was “best results”, the Turf quality ([1]; Table 5, Jun. 3, 2002) was 6.00 a and the Turf quality ([1]; Table 5, Jun. 17, 2002) was 5.80 a. It also gave a Turf quality ([1]; Table 5, May 27, 2002) of 4.85 a, a Turf quality ([1]; Table 6, May 8, 2002) of 3.20 a and a Turf quality ([1]; Table 6, May 13, 2002) of 3.17 a. The Turf quality ([1]; Table 6, May 20, 2002) was 3.55 a.

In the case of `C=C(C)[C@@H]1CC[C@]2(COC(=O)C(C)[N+]34CCN(CC3)CC4)CC[C@]3(C)C(CCC4[C@@]5(C)CC[C@H](OC(=O)C(C)[N+]67CCN(CC6)CC7)C(C)(C)C5CC[C@]43C)C12.Cl.Cl` (stereo partly shown) [Compound 22, Lup-20(29)-ene-3,28-bis[N-(1,4-diazabicyclo [2.2.2]octyl)-2-propionate]-dichloride], the “% of area infected” value (dollar spot fungus; Table 5 c2, Jun. 3, 2002) is reported as 24.5 a %, the “% of area infected” value (dollar spot fungus; Table 5 c4, Jun. 3, 2002) is reported as 17.3 ab % and the “% of area infected” value (dollar spot fungus; Table 6, May 8, 2002) is reported as 34.3 a %. For the same compound, the “% of area infected” value (dollar spot fungus; Table 6, May 13, 2002) was 28.5 a %, the “% of area infected” value (dollar spot fungus; Table 6, May 20, 2002) was 31.5 bc % and the “% of area infected” value (dollar spot fungus; Table 6, May 27, 2002) was 32.0 ab %. The Turf quality ([1]; Table 5, Jun. 3, 2002) was 4.80 abc, the Turf quality ([1]; Table 5, Jun. 17, 2002) was 5.07 ab and the Turf quality ([1]; Table 5, May 27, 2002) was 3.05 b. The Turf quality ([1]; Table 6, May 8, 2002) was 3.00 a, the Turf quality ([1]; Table 6, May 13, 2002) was 3.13 a and the Turf quality ([1]; Table 6, May 20, 2002) was 2.95 ab.

`C=C(C)[C@@H]1CC[C@]2(C)CC[C@]3(C)[C@H](CC[C@@H]4[C@@]5(C)C=C(O)C(=O)C(C)(C)[C@@H]5CC[C@]43C)[C@@H]12` [Compound 85, lupeneno-1-ene-2-ol, reference compound] gave an MIC [4] of 20 µg/mL (≈ 45.6 µM), an MIC [5] of 50 µg/mL (≈ 114 µM) and an MIC [2] of 100 µg/mL (≈ 228 µM). The MIC [3] was 50 µg/mL (≈ 114 µM).

In the case of `C=C(C)[C@@H]1CC[C@]2(COC(=O)C[N+](C)(C)CCCCCCCC)CC[C@]3(C)C(CCC4[C@@]5(C)CC[C@H](OC(=O)C[N+](C)(C)CCCCCCCC)C(C)(C)C5CC[C@]43C)C12.[Cl-].[Cl-]` (stereo partly shown) [Compound 53, Lup-20(29)-ene-3,28-bis(octyldimethylammoniumacetate) dichloride], the “% of area infected” value (dollar spot fungus; Table 5 c2, Jun. 3, 2002) is reported as 22.5 a %, the “% of area infected” value (dollar spot fungus; Table 5 c4, Jun. 3, 2002) is reported as 19.5 ab % and the “% of area infected” value (dollar spot fungus; Table 6, May 8, 2002) is reported as 33.5 a %. For the same compound, the “% of area infected” value (dollar spot fungus; Table 6, May 13, 2002) was 28.5 a %, the “% of area infected” value (dollar spot fungus; Table 6, May 20, 2002) was 27.3 bc % and the “% of area infected” value (dollar spot fungus; Table 6, May 27, 2002) was 26.8 bcd %. It also gave a Turf quality ([1]; Table 5, Jun. 3, 2002) of 5.18 ab, a Turf quality ([1]; Table 5, Jun. 17, 2002) of 5.38 ab and a Turf quality ([1]; Table 5, May 27, 2002) of 3.60 ab. The Turf quality ([1]; Table 6, May 8, 2002) was 3.00 a, the Turf quality ([1]; Table 6, May 13, 2002) was 3.05 a and the Turf quality ([1]; Table 6, May 20, 2002) was 3.25 ab.

With `C=C(C)[C@@H]1CC[C@]2(CO)CC[C@]3(C)C(CCC4[C@@]5(C)CC[C@H](OC(=O)C[N+]67CCN(CC6)CC7)C(C)(C)C5CC[C@]43C)C12.[Cl-]` (stereo partly shown) [Compound 6] the MIC [4] was 5 µg/mL, the MIC [5] was 10 µg/mL and the MIC [2] was 2 µg/mL. The MIC [3] was 2 µg/mL.

For `C=C(C)C1CCC2(C)CCC3(C)C(CCC4C5(C)CCC(OC(=O)C=CC(=O)O)C(C)(C)C5CCC43C)C12` (stereo not shown) [Compound 86, lupeol-3-maleate, reference compound], the “Approximate Minimum Inhibitory Concentration, MIC” value [4] was 10 µg/mL, the “Approximate Minimum Inhibitory Concentration, MIC” value ([4]; listed as lupeol-3-maleate) was ≤ 10 µg/mL and the “Approximate Minimum Inhibitory Concentration, MIC” value [5] was 50 µg/mL.
